According to ChEMBL document CHEMBL4842353, “Structure-activity relationship investigation for imidazopyrazole-3-carboxamide derivatives as novel selective inhibitors of Bruton's tyrosine kinase” (Eur J Med Chem, 2021):

Columns and labels:
[1] = in vivo; conditions: Sprague-Dawley, rat, po, 10 mg/kg
[2] = in vivo; conditions: Sprague-Dawley, rat, iv, 1 mg/kg
[3] = in vivo; conditions: Sprague-Dawley, rat, iv, 1 mg/kg; remark: listed apart in the source
[4] = in vivo; conditions: Sprague-Dawley, rat, iv, 1 mg/kg; remark: listed apart in the source
[5] = in vivo; conditions: Sprague-Dawley, rat, po, 10 mg/kg; remark: listed apart in the source
[6] = in vivo; conditions: Sprague-Dawley, rat, iv, 1 mg/kg; remark: listed apart in the source
[7] = in vivo; conditions: Sprague-Dawley, rat, po, 10 mg/kg; remark: listed apart in the source
[8] = in vivo; conditions: Sprague-Dawley, rat, po, 10 mg/kg; remark: listed apart in the source
[9] = in vivo; conditions: Sprague-Dawley, rat, po, 10 mg/kg; remark: listed apart in the source
[10] = in vivo; conditions: Sprague-Dawley, rat, iv, 1 mg/kg; remark: listed apart in the source
[11] = in vivo; conditions: Sprague-Dawley, rat, po, 10 mg/kg; remark: listed apart in the source
[12] = in vivo; conditions: Sprague-Dawley, rat, po, 10 mg/kg; remark: listed apart in the source
[13] = in vivo; conditions: Sprague-Dawley, rat, iv, 1 mg/kg; remark: listed apart in the source
[14] = in vivo; conditions: Sprague-Dawley, rat, iv, 1 mg/kg; remark: listed apart in the source
[15] = in vivo; conditions: Sprague-Dawley, rat, po, 10 mg/kg; remark: listed apart in the source

- Tmax at 24 h [1]: 0.83 h
- MRT last at 12 h [2]: 2.19 h
- AUC(0-inf) at 12 h [3]: 0.198 µg·h/mL
- half-life at 12 h [4]: 2.35 h
- Cmax at 24 h [5]: 0.016 µg/mL
- clearance at 12 h [6]: 5.1 L/h/kg
- AUC(0-inf) at 24 h [7]: 0.213 µg·h/mL
- AUC(0-t) at 24 h [8]: 0.167 µg·h/mL
- half-life at 24 h [9]: 5.98 h
- Tmax at 12 h [10]: 1.98 min
- MRT last at 24 h [11]: 10.2 h
- bioavailability at 24 h [12]: 10.8%
- AUC(0-t) at 12 h [13]: 0.18 µg·h/mL
- Cmax at 12 h [14]: 0.537 µg/mL
- CL/F at 24 h [15]: 47.1 L/h/kg
SMILES: CC#CC(=O)N1CCC(c2cnn3c(C(N)=O)c(-c4ccc(Oc5ccccc5)cc4)[nH]c23)CC1
